Results from ChEMBL document CHEMBL1201862, “PubChem BioAssay data set” (2004).
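Method: 48-hour compound exposure of cells in 96-well plates, five concentrations, linear interpolation of endpoints. The concentration for 50% growth inhibition is given as GI50.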 Activity calls are given as the source filed them. Rule as the data show it: active = GI50 up to about 1.1 µM and inactive = higher. Where a SMILES comes first, the peptide text is derived from it. [ ]: non-standard residue; d: D form. The star is where a group is joined. Chg = N[CH](C(=O)O)C1CCCCC1; Cbz = O=C(OCc1ccccc1)*; OBn = c1ccc(CO*)cc1

Legend:
Test in all cases: inhibition of tumour cell growth, NCI panel, 48 h
SF-295 = tested on: SF-295
HOP-92 = tested on: HOP-92
OVCAR-4 = tested on: OVCAR-4
CCRF-CEM = tested on: CCRF-CEM
NCI-H23 = tested on: NCI-H23
MCF7 = tested on: MCF7
MDA-N = tested on: MDA-N
SF-539 = tested on: SF-539
MDA-MB-435 = tested on: MDA-MB-435
KM12 = tested on: KM12
MDA-MB-231 = tested on: MDA-MB-231
Malme-3M = tested on: Malme-3M
NCI-H460 = tested on: NCI-H460
UACC-257 = tested on: UACC-257
HCC 2998 = tested on: HCC 2998
OVCAR-3 = tested on: OVCAR-3
SK-MEL-5 = tested on: SK-MEL-5
DU-145 = tested on: DU-145
T47D = tested on: T47D
CAKI-1 = tested on: CAKI-1

SMILES | GI50 (SF-295) | GI50 (HOP-92) | GI50 (OVCAR-4) | GI50 (CCRF-CEM) | GI50 (NCI-H23) | GI50 (MCF7) | GI50 (MDA-N) | GI50 (SF-539) | GI50 (MDA-MB-435) | GI50 (KM12) | GI50 (MDA-MB-231) | GI50 (Malme-3M) | GI50 (NCI-H460) | GI50 (UACC-257) | GI50 (HCC 2998) | GI50 (OVCAR-3) | GI50 (SK-MEL-5) | GI50 (DU-145) | GI50 (T47D) | GI50 (CAKI-1)
CCOC(=O)C1C(=O)CC(O)(c2ccccc2)C(C(=O)OCC)C1c1ccc(N(C)C)cc1 (stereo not given) | 5.71 µM (inactive) | 19.7 µM (inactive) | 59.2 µM (inactive) | 17.3 µM (inactive) | > 45.7 µM (inactive) | 21.8 µM (inactive) | 6.44 µM (inactive) | 18.1 µM (inactive) | 5.04 µM (inactive) | 20.3 µM (inactive) | 28.2 µM (inactive) | 18.2 µM (inactive) | 20 µM (inactive) | 63.8 µM (inactive) | 34.4 µM (inactive) | 24 µM (inactive) | 22.3 µM (inactive) | 57.1 µM (inactive) | 27.6 µM (inactive) | 51.2 µM (inactive)
CN1/C(=C\N=O)C(C)(C)N(O)C1(C)C | > 100 µM (inactive) | > 100 µM (inactive) | > 100 µM (inactive) | > 100 µM (inactive) | > 100 µM (inactive) | > 100 µM (inactive) | > 100 µM (inactive) | > 100 µM (inactive) | > 100 µM (inactive) | > 100 µM (inactive) | > 100 µM (inactive) | > 100 µM (inactive) | > 100 µM (inactive) | > 100 µM (inactive) | > 100 µM (inactive) | > 100 µM (inactive) | > 100 µM (inactive) | > 100 µM (inactive) | > 100 µM (inactive) | > 100 µM (inactive)
O=[N+]([O-])c1cc(F)ccc1S(=O)(=O)c1ccccc1 | > 10 µM (inactive) | > 10 µM (inactive) | > 10 µM (inactive) | > 10 µM (inactive) | > 10 µM (inactive) | > 10 µM (inactive) | > 10 µM (inactive) | > 10 µM (inactive) | > 10 µM (inactive) | > 10 µM (inactive) | > 10 µM (inactive) | > 10 µM (inactive) | > 10 µM (inactive) | > 10 µM (inactive) | > 10 µM (inactive) | > 10 µM (inactive) | > 10 µM (inactive) | > 10 µM (inactive) | > 10 µM (inactive) | > 10 µM (inactive)
COC(=O)C(NC(=O)C(CC(=O)OCc1ccccc1)NC(=O)OCc1ccccc1)C1CCCCC1 (stereo not given) (Cbz-Asp(OBn)-[Chg]-OMe; configuration not given here) | 67.3 µM (inactive) | 21.7 µM (inactive) | > 100 µM (inactive) | > 100 µM (inactive) | > 100 µM (inactive) | > 100 µM (inactive) | > 100 µM (inactive) | 59.7 µM (inactive) | > 100 µM (inactive) | > 100 µM (inactive) | 84.3 µM (inactive) | > 100 µM (inactive) | > 100 µM (inactive) | > 100 µM (inactive) | > 100 µM (inactive) | > 100 µM (inactive) | 0.195 µM (active) | > 100 µM (inactive) | 48 µM (inactive) | > 100 µM (inactive)
NC(=O)c1ccc(N)nc1 [6-AMINONICOTINAMIDE] | 5.07 µM (inactive) | 213 µM (inactive) | 7.01 µM (inactive) | 12.3 µM (inactive) | 9.98 µM (inactive) | 0.389 µM (active) | 14.3 µM (inactive) | 8.43 µM (inactive) | 4.66 µM (inactive) | 48.1 µM (inactive) | 39.4 µM (inactive) | 33.2 µM (inactive) | 5.16 µM (inactive) | 0.986 µM (active) | 31.5 µM (inactive) | 67.8 µM (inactive) | 0.759 µM (active) | 2.3 µM (inactive) | > 255 µM (inactive) | 17.6 µM (inactive)
CC(=O)OC(C)(C)/C=C/C(=O)[C@](C)(O)[C@H]1[C@H](O)C[C@@]2(C)[C@@H]3CC=C4[C@@H](C=C(O)C(=O)C4(C)C)[C@]3(C)C(=O)C[C@]12C [CUCURBITACIN E] | 0.0348 µM (active) | 0.0302 µM (active) | 0.0305 µM (active) | 0.0298 µM (active) | 0.055 µM (active) | 0.054 µM (active) | 0.0518 µM (active) | 0.023 µM (active) | 0.604 µM (active) | 0.504 µM (active) | 0.0537 µM (active) | 0.0366 µM (active) | 0.0222 µM (active) | 0.0385 µM (active) | 0.0501 µM (active) | 0.0459 µM (active) | 0.0406 µM (active) | 0.0262 µM (active) | 0.217 µM (active) | 0.0216 µM (active)
O=P(O)(NCCCl)NCCCl [PALIFOSFAMIDE] | 54.1 µM (inactive) | > 100 µM (inactive) | > 100 µM (inactive) | 47.5 µM (inactive) | 64.6 µM (inactive) | > 100 µM (inactive) | > 100 µM (inactive) | 52.5 µM (inactive) | > 100 µM (inactive) | > 10 µM (inactive) | > 100 µM (inactive) | > 100 µM (inactive) | 28.8 µM (inactive) | > 10 µM (inactive) | > 100 µM (inactive) | > 10 µM (inactive) | > 10 µM (inactive) | 92.9 µM (inactive) | > 100 µM (inactive) | 39.8 µM (inactive)
